# Results taken from US6294526A, “Use of flavone derivatives for induction of β-lactam-sensitivity of MRSA” (priority 1998, dated 2001).
# Read-outs that look alike come from different tables or passages of the source.
# Tests used:
# [1] = test system: MRSA; test: antibacterial activity of antibiotics alone and in the presence of apigenin (4 μg/ml), MRSA; type: cell-based, methicillin-resistant Staphylococcus aureus; conditions: for inhibition of β-lactam resistant MRSA / improvement of antibacterial effect with apigenin (in words): apigenin 4 μg/ml or less than its MIC; for MIC50: MRSA
# Experimental: (§1) The screening of the present invention may be carried out according to the agar plate dilution method designated by the Japan Society of Chemotherapy (Chemotherapy 29(1), 76-79 (1981)). Mueller-Hinton agar base semi-synthetic medium may be used for a plate culture medium for a sensitivity test together with an inoculating bacteria solution which may be prepared by culturing bacteria to be tested at 37° C. for 20 hours diluted with 8.5% by isotonic sodium chloride solution to 10^6 CFU/ml. Diluted β-lactam solutions are prepared by two times serial dilution. 1 ml of the diluted β-lactam solution and 1 ml of a predetermined concentration of a sample to be tested are added to 8 ml of the plate culture medium for a sensitivity test. To the resultant plate culture medium for sensitivity test, the bacteria are inoculated using a microplanter (SAKUMASEISAKUSYO Co.), cultured for 20 hours at 37° C. followed by assessing for a minimum inhibition concentration (MIC).
# (D) Then use of 4 μg/ml of apigenin and other antibiotics at the same time was studied. The antibiotics are penicillin , ampicillin, cephalothin, cefoxitin, cefuroxime, cefotaxime, vancomycin, streptomycin, chloramphenicol, kanamycin, erythromycin, nalixic acid and tetracycline.
# [2] = test system: MSSA; test: antibacterial activity (MIC) by agar plate dilution method, MSSA strains; type: cell-based, Methicillin-sensitive Staphylooccus aureus
# Experimental: as §1
# (§2) (A) Antibacterial activities of ether extract from Scutellaria barbata, SB-1 (isolated from Scutellaria barbata), apigenin (authentic sample) and luteolin (authentic sample) were shown in Table 1.
# (§3) Flavones were dissolved in methanol and the others were dissolved in 0.1 N NaOH. A method for determination of antibacterial activity is, as described above, an agar plate dilution method designated by the Japan Society of Chemotherapy (Chemotherapy 29(1), 76-79 (1981)) to determine MIC value. MIC80 is a concentration at which a strain is prohibited to proliferate by 80% and MIC50 is a concentration at which a strain is prohibited to proliferate by 50%.
# [3] = test system: MRSA; test: antibacterial activity (MIC) by agar plate dilution method, MRSA strains; type: cell-based, methicillin-resistant Staphylococcus aureus
# Experimental: as §1, §2, §3
# [4] = test system: MRSA and MSSA; test: antibacterial activity (MIC) by agar plate dilution method, MRSA and MSSA strains together; type: cell-based, Staphylococcus aureus; conditions: MRSA and MSSA, Table 2
# Experimental: as §1, with “(MIC). […]” for “(MIC).”
# Antibacterial activity is determined for flavones including flavone, flavonol, flavanone, isoflavone, catechin and calchone, as follows:
# as §3
# [5] = test system: MSSA; test: antibacterial activity of methicillin in the presence of flavone derivatives, MSSA; type: cell-based, Methicillin-sensitive Staphylooccus aureus; conditions: Staphylococcus aureus, 20 h; methicillin alone; MSSA (7 strains)
# Experimental: as §1, with “To the resultant plate culture medium for sensitivity test, the bacteria are inoculated using a microplanter (SAKUMASEISAKUSYO Co.), cultured for 20 hours at 37° C. followed by assessing for a minimum inhibition concentration (MIC).” left out
# (§4) Mueller-Hinton agar base semi-synthetic medium was used as a plate culture medium for the sensitivity test, and an inoculating bacteria solution was prepared by culturing bacteria to be tested at 37° C. for 20 hours and diluting with 8.5% by weight isotonic sodium chloride solution to a final concentration of 10^6 CFU/ml. […] To the resultant plate culture medium for the sensitivity test, the inoculating bacteria were inoculated using a microplanter (SAKUMASEISAKUSYO Co.), cultured for 20 hours at 37° C. and then minimum inhibition concentration (MIC) was assessed.
# [6] = test system: MRSA; test: antibacterial activity of methicillin in the presence of flavone derivatives, MRSA; type: cell-based, methicillin-resistant Staphylococcus aureus
# Experimental: as §1, with “To the resultant plate culture medium for sensitivity test, the bacteria are inoculated using a microplanter (SAKUMASEISAKUSYO Co.), cultured for 20 hours at 37° C. followed by assessing for a minimum inhibition concentration (MIC).” left out
# as §4
# [7] = test system: MRSA No. 5; test: effect of flavone on antibacterial activity of antibiotics against MRSA No. 5 in bouillon (broth microdilution); type: cell-based, methicillin-resistant Staphylococcus aureus; conditions: for MIC: Staphylococcus aureus, MRSA, 20 h, read-out: antibacterial activity of methicillin against MRSA No. 5
# [8] = test system: MRSA No. 5; test: as above; type: cell-based, methicillin-resistant Staphylococcus aureus; conditions: for MIC: Staphylococcus aureus, MRSA, 20 h, read-out: MIC
# Experimental: Alternatively, the screening of the present invention may be carried out according to the broth microdilution method designated by the Japan Society of Chemotherapy (Chemotherapy 38(1), 102-105 (1990)). Muellar-Hinton broth is used as a culture medium for the sensitivity test, and 50 mg/ml of calcium(Ca) ion, 25 mg/ml of magnesium(Mg) ion, and 2% sodium chloride (NaCl) are added thereto. An inoculating bacteria solution may be prepared by culturing bacteria to be tested in Mueller-Hinton broth at 37° C. for 20 hours and diluting with Mueller-Hinton broth to 10^5 CFU/ml final concentration of inoculating bacteria. Diluted β-lactam solution is prepared by two times serial dilution series. 10 μl of the diluted β-lactam solution and 10 μl of a predetermined concentration of a sample of bacteria to be tested are added to mix with 80 μl of the culture medium for the sensitivity test. To the resultant plate culture medium for sensitivity test, the inoculating bacteria are added and culturing is carried out for 20 hours at 37° C. and then assessment for a minimum inhibition concentration (MIC) is carried out. A minimum inhibition concentration means the minimum concentration of β-lactam at which growth of bacteria is not recognized by the naked eye.
# (G) Antibacterial activity of 6 β-lactams, that is, cephalothin, cefuroxime, cefotaxime, cefoxitin, streptomycin and vancomycin, against MRSA in the presence of 0.5 mM flavone was studied in bouillon.
# Muellar-Hinton broth was used as a culture medium for the sensitivity test, and 50 mg/ml of calcium (Ca) ion, 25 mg/ml of maqnesium (Mg) ion, 2% sodium chloride (NaCl) were added thereto. An inoculating bacteria solution was prepared by culturing bacteria to be tested with Mueller-Hinton broth at 37° C. for 20 hours and diluting with Mueller-Hinton broth to 10^5 CFU/ml final concentration of inoculating bacteria. Diluted β-lactam solutions were prepared in two times serial dilutions starting from 10 mM. Ten microliters of the diluted β-lactam solution and 10 μl of 5 mM of flavone were mixed with 80 μl of the culture medium for the sensitivity test in a microplate having U-shaped wells and samples of bacteria to be tested were added thereto. The mixture was cultured 20 hours at 37° C. and then assessed for minimum inhibition concentration (MIC). Minimum inhibition concentration means minimum concentration of a β-lactum at which growth of bacteria is inhibited to the extent that bacteria is not recognized by the naked eye.
smiles,measurement,setting,value
"O=c1cc(-c2ccc(O)cc2)oc2cc(O)cc(O)c12 [Apigenin, apigenin]",inhibition of β-lactam resistant MRSA / improvement of antibacterial effect with apigenin (in words),[1],could improve antibacterial effect of methicillin on MRSA
same,MIC,[2]; MSSA strain No. 21,> 250 µg/mL
same,MIC,[2]; MSSA strain No. 22,> 250 µg/mL
same,MIC,[2]; MSSA strain No. 24,3.9 µg/mL
same,MIC,"[2]; MSSA strain No. 24, listed as SB-1",31.3 µg/mL
same,MIC,[2]; MSSA strain No. 25,3.9 µg/mL
same,MIC,[2]; MSSA strain No. 27,15.6 µg/mL
same,MIC,"[2]; MSSA strain No. 27, listed as SB-1",31.3 µg/mL
same,MIC50,"[2]; Staphylococcus aureus, 20 h, MSSA (7 strains), read-out: MIC50",15.6 µg/mL
same,MIC,"[2]; Staphylococcus aureus, MSSA, 20 h, MSSA strain No. 21, read-out: MIC",250 µg/mL
same,MIC,"[2]; Staphylococcus aureus, MSSA, 20 h, MSSA strain No. 22, read-out: MIC",250 µg/mL
same,MIC,"[2]; Staphylococcus aureus, MSSA, 20 h, MSSA strain No. 23, read-out: MIC",15.6 µg/mL
same,MIC,"[2]; Staphylococcus aureus, MSSA, 20 h, MSSA strain No. 25, read-out: MIC",7.8 µg/mL
same,MIC,"[2]; Staphylococcus aureus, MSSA, 20 h, MSSA strain No. 26, read-out: MIC",15.6 µg/mL
same,MIC,[3]; MRSA strain No. 1,7.8 µg/mL
same,MIC,[3]; MRSA strain No. 2,3.9 µg/mL
same,MIC,[3]; MRSA strain No. 3,7.8 µg/mL
same,MIC,[3]; MRSA strain No. 4,7.8 µg/mL
same,MIC,[3]; MRSA strain No. 5,3.9 µg/mL
same,MIC,[3]; MRSA strain No. 6,3.9 µg/mL
same,MIC,[3]; MRSA strain No. 8,3.9 µg/mL
same,MIC,[3]; MRSA strain No. 9,3.9 µg/mL
same,MIC,"[3]; MRSA strain No. 9, listed as SB-1",15.6 µg/mL
same,MIC,[3]; MRSA strain No. 13,7.8 µg/mL
same,MIC,"[3]; MRSA strain No. 13, listed as SB-1",31.3 µg/mL
same,MIC,[3]; MRSA strain No. 14,7.8 µg/mL
same,MIC,"[3]; MRSA strain No. 14, listed as SB-1",31.3 µg/mL
same,MIC,[3]; MRSA strain No. 15,7.8 µg/mL
same,MIC,[3]; MRSA strain No. 16,7.8 µg/mL
same,MIC,[3]; MRSA strain No. 17,3.9 µg/mL
same,MIC50,"[3]; Staphylococcus aureus, 20 h, MRSA (20 strains), read-out: MIC50",7.8 µg/mL
same,MIC,"[3]; Staphylococcus aureus, MRSA, 20 h, MRSA strain No. 1, read-out: MIC",15.6 µg/mL
same,MIC,"[3]; Staphylococcus aureus, MRSA, 20 h, MRSA strain No. 2, read-out: MIC",7.8 µg/mL
same,MIC,"[3]; Staphylococcus aureus, MRSA, 20 h, MRSA strain No. 3, read-out: MIC",15.6 µg/mL
same,MIC,"[3]; Staphylococcus aureus, MRSA, 20 h, MRSA strain No. 4, read-out: MIC",15.6 µg/mL
same,MIC,"[3]; Staphylococcus aureus, MRSA, 20 h, MRSA strain No. 5, read-out: MIC",7.8 µg/mL
same,MIC,"[3]; Staphylococcus aureus, MRSA, 20 h, MRSA strain No. 6, read-out: MIC",7.8 µg/mL
same,MIC,"[3]; Staphylococcus aureus, MRSA, 20 h, MRSA strain No. 7, read-out: MIC",3.9 µg/mL
same,MIC,"[3]; Staphylococcus aureus, MRSA, 20 h, MRSA strain No. 8, read-out: MIC",7.8 µg/mL
same,MIC,"[3]; Staphylococcus aureus, MRSA, 20 h, MRSA strain No. 10, read-out: MIC",15.6 µg/mL
same,MIC,"[3]; Staphylococcus aureus, MRSA, 20 h, MRSA strain No. 11, read-out: MIC",> 250 µg/mL
same,MIC,"[3]; Staphylococcus aureus, MRSA, 20 h, MRSA strain No. 12, read-out: MIC",> 250 µg/mL
same,MIC,"[3]; Staphylococcus aureus, MRSA, 20 h, MRSA strain No. 15, read-out: MIC",15.6 µg/mL
same,MIC,"[3]; Staphylococcus aureus, MRSA, 20 h, MRSA strain No. 16, read-out: MIC",15.6 µg/mL
same,MIC,"[3]; Staphylococcus aureus, MRSA, 20 h, MRSA strain No. 17, read-out: MIC",7.8 µg/mL
same,MIC,"[3]; Staphylococcus aureus, MRSA, 20 h, MRSA strain No. 18, read-out: MIC",> 250 µg/mL
same,MIC,"[3]; Staphylococcus aureus, MRSA, 20 h, MRSA strain No. 19, read-out: MIC",> 250 µg/mL
same,MIC,"[3]; Staphylococcus aureus, MRSA, 20 h, MRSA strain No. 20, read-out: MIC",31.3 µg/mL
same,antibacterial activity (in words),[4],showed antibacterial activity
"COc1cccc(OC)c1C(=O)N[C@@H]1C(=O)N2[C@@H]1SC(C)(C)[C@@H]2C(=O)O [Methicillin, methicillin]",MIC50,[1]; Antibiotics alone,> 250 µg/mL
same,MIC50,"[1]; Antibiotics alone, listed as methicillin",1000 µg/mL
same,times as potent as methicillin alone,"[1]; MIC50, methicillin plus 4 μg/ml apigenin vs methicillin alone",about 700 times
same,MIC50,"[1]; Staphylococcus aureus, 20 h, antibiotic with Apigenin (4 μg/ml), read-out: MIC50",15.6 µg/mL
same,inhibition of β-lactam resistant MRSA / improvement of antibacterial effect with apigenin (in words),[1],inhibited β-lactam resistant MRSA
same,MIC,[5],0.98 to 2 µg/mL
same,MIC50,[5],2 µg/mL
same,MIC50,"[6]; Staphylococcus aureus, 20 h, methicillin alone, MRSA (20 strains)",> 250 µg/mL
same,antibacterial activity of methicillin on MRSA No.5 (in words),[6]; under the presence of flavone,strong on MRSA No.5
same,MIC,[7]; Control (no flavone),> 1000 µM
same,MIC,[7]; flavone 0.11 mM (25 μg/ml),1000 µM
same,MIC,[7]; flavone 0.2 mM,31.2 µM
same,MIC,[7]; flavone 0.23 mM (50 μg/ml),31.2 µM
same,MIC,[7]; flavone 0.5 mM,15.6 µM
same,antibacterial activity of methicillin against MRSA (in words),[7]; flavone 0.2 mM,prominently shown
same,antibacterial activity of methicillin against MRSA (in words),[7]; in proportion to increase of flavone concentration,increased
same,MIC,[8]; Concentration of flavone 0 mM,1000 µM
same,MIC,[8]; Concentration of flavone 0.5 mM,15.6 µM
same,inhibitory effect on resistance of MRSA No.5 (in words),[8]; in the presence of flavone 0.5 mM,showed inhibitory effect on resistance of MRSA No.5
